# According to patent publication US6812222B1, “Biocompatible aqueous solution for use in continuous ambulatory peritoneal dialysis” (priority 1995, dated 2004):
# Where two headings read alike, the source gives them in different places.
# Key:
# [1] = test system: chemically induced inflammatory bowel reaction with bowel wall thickening or fibrosis; test: Colon fibrosis (weight of 8 cm of colon) after intrarectal TNB/ethanol in rats; format: in vivo; details: for Colon fibrosis (as measured by weight of 8 cm of colon), mean ± SEM: rats
# From the text: In animal models of inflammatory bowel disease the colon becomes fribrotic, as does the peritoneum as a result of chronic intraperitoneal dialysis. […] It is to be expected that in a similar manner NAG will prevent the development of fibrosis of the peritoneum in CAPD patients. [table]
# human mesothelial cells = test: Stimulation of hyaluronic acid in tissue culture of human mesothelial cells; format: cell-based
# peritoneal membrane = format: in vivo, rats; details: for Hyaluronic Acid in Dialysate Fluid / Mass Transfer Area Coef for Urea / Peritoneal Clearance of Urea: 4 hours dwell; for Net Ultrafiltration: pH 7.35-7.4, 4 hours dwell, 20 mL infused
# Description: In experiments in which rats were dialyzed for 4 hours with Hanks Balances salt solution with either glucose or N-acetylglucosamine added at a concentration of 75 mM or 214 mM, at a pH of 7.35-7.4. The net utrafiltration was calculated as the difference between the drained volume of dialysate after 4 hours dwell time in the peritoneal cavity and the infused volume (20 mL) of the dialysis fluid. As well, the concentration of urea and creatinine in the blood and the dialysis fluid were measured. Permeability of the peritoneal membrane to urea and creatinine, expressed as the Mass Transfer Area Coefficient which was calculated according to the method of Krediet et al (Blood Purif 4: 194, 1986). […] In addition, the inclusion of NAG in the dialysate fluid stimulated the synthesis of hyaluronic acid, as shown by the more than 100% increase in amount of hyaluronic acid secreted in the dialysis fluid compared to the glucose treated rats.
# [2] = 7.5% solution; cited from earlier work
# [3] = versus glucose, rats dialyzed 4 hours
"Albumin or total protein loss into the dialysis fluid (in words) (peritoneal membrane; rat, in vivo)",Compound,"Colon fibrosis (as measured by weight of 8 cm of colon), mean ± SEM ([1]; 25 mg NAG/kg BWt intrarectal 1 hr before TNB/EtOH)","Colon fibrosis (as measured by weight of 8 cm of colon), mean ± SEM ([1]; 50 mg NAG/kg BWt intrarectal 1 hr before TNB/EtOH)","Colon fibrosis (as measured by weight of 8 cm of colon), mean ± SEM ([1]; 100 mg NAG/kg BWt intrarectal 1 hr before TNB/EtOH)",Fibrotic reaction to the inflammatory stimulus ([1]; solution of NAG administered into the bowel of rats),Stimulation of hyaluronic acid (human mesothelial cells),Hyaluronic Acid in Dialysate Fluid (peritoneal membrane; 75 mM in dialysis fluid),Mass Transfer Area Coef for Urea (peritoneal membrane; 75 mM in dialysis fluid),Peritoneal Clearance of Urea (peritoneal membrane; 75 mM in dialysis fluid),Net Ultrafiltration (peritoneal membrane; 75 mM in dialysis fluid),Hyaluronic Acid in Dialysate Fluid (peritoneal membrane; 214 mM in dialysis fluid),Mass Transfer Area Coef for Urea (peritoneal membrane; 214 mM in dialysis fluid),Peritoneal Clearance of Urea (peritoneal membrane; 214 mM in dialysis fluid),Net Ultrafiltration (peritoneal membrane; 214 mM in dialysis fluid),Increase in amount of hyaluronic acid secreted in the dialysis fluid (peritoneal membrane; compared to the glucose treated rats),Net ultrafiltration (in words) (peritoneal membrane; [3]),Peritoneal clearance of urea (in words) (peritoneal membrane; [3]),Osmolality [2],pH of solution [2]
without increasing,"CC(=O)N[C@H]1C(O)O[C@H](CO)[C@@H](O)[C@@H]1O (stereo partly shown) [NAG, N-acetylglucosamine]",1.669 ± 0.142 gm,1.339 ± 0.155 gm,1.150 ± 0.068 gm,reduces in a dose dependent manner,stimulation of hyaluronic acid by N-acetylglucosamine was confirmed,226 ± 93 µg/L,0.287 ± 0.13 mL/min,18.4 ± 2.1 mL/min,−0.11 ± 1.6 mL/4 hrs,217 µg/L,0.262 ± 0.15 mL/min,30.0 mL/min,14.45 mL/4 hrs,more than 100%,statistically significant increase,statistically significant increase,–,–
–,Icodextrin,–,–,–,–,–,–,–,–,–,–,–,–,–,–,–,–,282 mOsm/kg,5.3
